Measured values from patent US10513534B2, “2′-chloro nucleoside analogs for HCV infection” (priority 2012, dated 2019).

Key:
[1] = Stability in simulated gastric fluid; type: in vitro ADME; conditions: simulated gastric fluid with pepsin, 100 μM, 2 hours, 37° C.
Experimental: (§1) Stability in Simulated Gastric and Intestinal Fluids: Simulated gastric and intestinal fluids containing pepsin and pancreatin respectively were prepared according to the U.S. Pharmacopoeia USP291 procedure(www.pharmacopeia.cn/v29240/usp29nf24s0_ris1s126.html). Each test compound (final concentration 100 μM) was incubated in duplicate in the appropriate fluid for 2 hours at 37° C. The samples were quenched with […] cold acetonitrile, vortexed for 30 seconds and then centrifuged at 16100×g for 10 min. The supernatants were analyzed by HPLC on a C-18 column with UV detection at 252 nm. The time zero samples were prepared by adding SGF or SIF fluid to the quenching solvent followed by the test compound. Stability of the compound was determined by peak area of the test compound after incubation and calculated as percent of the peak area observed at time zero.

fresh human hepatocytes = assay: Release of active metabolite in fresh human hepatocytes; type: in vitro ADME; set-up: key to FHH TP (6 hr): + ≤ 15; 15 < ++ ≤ 50; 50 < +++ ≤ 100; 100 < ++++; BLD = below limit of detection; conditions: 10 μM
Experimental: (§2) Plates of fresh human and mouse hepatocytes were obtained on ice. The medium was removed and replaced with hepatocyte culture medium (William's E supplemented with penicillin-streptomycin, 1% L-glutamine, 1% insulin-transferrin-selenium and 0.1 μM Dexamethasone (Invitrogen) or with Invitro GRO HI medium complemented with Torpedo antibiotics (Celsis)). Cells were left overnight in an incubator at 37° C. to acclimatize to culture and the medium.
(§3) Hepatocyte incubations were conducted at a final volume of 0.5 mL hepatocyte culture medium/well (0.8 million cells/well for human and 0.5 million cells/well for mouse; 12 well plate no overlay, collagen coat). Culture medium from overnight incubation of cells was removed and replaced with fresh medium, pre-warmed to 37° C., containing 10 μM of test compound from a stock solution in DMSO (final DMSO concentration was 0.1%). At each specific time point, incubation medium was removed and cell monolayers were carefully washed two times with ice-cold PBS. Following the last wash, all PBS was carefully removed and 1.0 mL of extraction solution (ice-cold 70% methanol/30% water) added. Cells were scraped off and suspended in the extraction solution, transferred to 2 mL polypropylene microfuge tubes and intracellular contents extracted overnight at −20° C.
(§4) After the overnight treatment the cellular extracts were prepared by centrifugation at 16,000×g for 10 min to remove cellular debris. The remaining sample was then dried using a refrigerated centrivap concentrator. Dry extracts were reconstituted in 1000 μL of HPLC-grade water and centrifuged at 16,000×g for 10 min. Aliquots (100 μL each) of the supernatant were transferred into a 96 well plate and internal standard (4 ng/mL final concentration) was added as the internal standard (IS) for LC-MS/MS analysis.
(§5) The incubation time points were 6, 24 and 48 hours for human hepatocytes and 1, 4, 8, 12 and 24 hours for mouse hepatocytes.

HCV genotype 1b replicon [2] = assay: HCV replicon assay (Zluc luciferase); type: cell-based; conditions: Zluc cells, 72 hours; read-out: HCV Replicon EC50
In short: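 Zluc Huh-7 cells with HCV genotype 1b replicon and luciferase reporter treated with 5-fold dilutions (100 μM to 0.0000512 μM final) in duplicate, or at 1 and 10 μM. Luminescence read with ONE-glo; EC50 from dose-response fits, or % inhibition at the fixed concentrations.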

fresh mouse hepatocytes = assay: Release of active metabolite in fresh mouse hepatocytes; type: in vitro ADME; conditions: 10 μM
Experimental: as §2, §3, §4, §5

Zluc cells [3] = assay: Cytotoxicity evaluation, CellTiter-Blue Cell Viability Assay; conditions: Zluc cells, CellTiter-Blue
[4] = Plasma nucleoside pharmacokinetics after single oral dose in CD-1 mice; type: in vivo; conditions: single oral dose 10 mg/kg in PEG 200
In short: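 Mouse plasma was extracted by acetonitrile/0.2% formic acid protein precipitation using 2′-MeG-D3 or tiapride as internal standard. Nucleoside was quantified by positive-ion LC-MS/MS after C18 gradient separation. Calibration spanned 0.500 (LLOQ) to 200 ng/mL.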

[5] = Stability in simulated intestinal fluid; type: in vitro ADME; conditions: simulated intestinal fluid with pancreatin, 100 μM, 2 hours, 37° C.
Experimental: as §1

[6] = Plasma prodrug and nucleoside pharmacokinetics after single oral dose in cynomolgus monkeys; type: in vivo; conditions: cynomolgus monkey, plasma, single oral 10 mg/kg
Experimental: (§6) For each compound, a single oral dose at 10 mg/kg in PEG 200 (dose volume 3 mL/kg) was administered to cynomolgus monkeys. Untreated animals were used for the collection of control liver. Plasma samples were collected at 0.5, 1, 2, 4, 6, 8, 12 and 24 hours for compound 37, diastereomer 2.
Plasma samples were analyzed for the prodrug and nucleoside by LC-MS/MS. For protein precipitation and extraction, each plasma sample (50 μL) was treated with 500 μL of 0.2% formic acid in acetonitrile and 20 μL of an appropriate internal standard working solution. After vortexing and centrifugation, 500 µL of the sample extracts were transferred to a new plate, dried under N2 at ˜28° C. and reconstituted with 75 μL of 0.2% FA in water. The extracts were chromatographed on an Aquasil C18 column using a gradient system of 0.2% formic acid in water and acetonitrile. The analytes were detected and quantified by tandem mass spectrometry in positive ion mode on an MDS Sciex API4000 equipped with a Turbo Ionspray® interface.

[7] = Liver triphosphate pharmacokinetics after single oral dose in cynomolgus monkeys; type: in vivo; conditions: normalized to 1 μmol/kg dose
Experimental: as §6
Liver samples were analyzed for the relevant nucleoside triphosphate by LC-MS/MS. […] Appropriate internal standard solution was added to the homogenate followed by neutralization with 20% ammonium hydroxide solution and addition of 500 μL 1% formic acid. The tissue samples were extracted by weak anion exchange solid phase extraction (SPE). Post extraction, the eluates were evaporated under nitrogen, followed by reconstitution before injection onto the LC-MS/MS system.

HCV genotype 1b replicon [8] = assay: HCV replicon assay in Zluc cells transiently transfected with human CES1; type: cell-based; conditions: for EC50: Zluc cells transiently transfected with human CES1, 72 hours; for Effect of CES1 overexpression on replicon activity: cells overexpressing CES1 versus Zluc; for Fold Activity Increase EC50 (Zluc)/EC50 (Zluc + CES1): ratio of replicon EC50 without and with CES1 overexpression
Experimental: (§7) An Huh-7-derived cell line (Zluc) that harbors an HCV genotype 1b replicon and a luciferase reporter gene was grown in Dulbecco's Modified Eagle Medium (DMEM) supplemented with 10% fetal bovine serum, 2 mM GlutaMAX, 1% MEM nonessential amino acids, 100 IU/mL penicillin, 100 μg/mL streptomycin, and 0.5 mg/mL Geneticin® (G418). Zluc cells were transiently transfected with human CES1 (GenBank Accession No. NM_001025194) by employing a lipid/histone based transfection procedure. Expression of CES1 was confirmed by Western blot, 24- and 48-hours after transfection, using anti-CES1 and anti-FLAG® tag antibodies.
For dose response testing the cells were seeded in 96-well plates at 7.5×10^3 cells per well in a volume of […], and incubated at 37° C./5% CO2. Drug solutions were prepared freshly in the culture medium as 2× stocks. Ten additional 5-fold dilutions were prepared from these stocks in DMEM without G418. At least three hours after cells were seeded, drug treatment was initiated by adding 50 μL of drug dilutions to the plates in duplicate. Final concentrations of drug ranged from 100 μM to 0.0000512 μM. Cells were then incubated at 37° C./5% CO2. […] For this, media was removed from the plates via gentle tapping. Fifty microliters of ONE-glo luciferase assay reagent was added to each well. The plates were shaken gently for 3 min at room temperature and luminescence was measured on a Victor^3 V 1420 multilabel counter (Perkin Elmer) with a 1 second read time using a 700 nm cut-off filter. The EC50 values were calculated from dose response curves from the resulting best-fit equations determined by Microsoft Excel and XLfit 4.1 software.

Zluc + CES1 cells = assay: Cytotoxicity in Zluc cells transfected with human CES1; type: cell-based; conditions: Zluc cells transiently transfected with human CES1
Experimental: as §7
(§8) For cytotoxicity evaluation, cells were treated with compounds as described herein, and cell viability was monitored using the CellTiter-Blue Cell Viability Assay (Promega) by adding 20 μL of the assay solution to each well. The plates were then incubated at 37° C./5% CO2 for at least 3 hours.

Zluc cells [9] = assay: Cytotoxicity in Zluc cells (CES1 study); type: cell-based
Experimental: as §8

HCV genotype 1b replicon [10] = assay: HCV replicon assay in Zluc cells (CES1 study); type: cell-based; conditions: 72 hours
Experimental: as §7
For dose response testing the cells were seeded in 96-well plates at 7.5×10^3 cells per well in a volume of […], and incubated at 37° C./5% CO2. Drug solutions were prepared freshly in the culture medium as 2× stocks. Ten additional 5-fold dilutions were prepared from these stocks in DMEM without G418. At least three hours after cells were seeded, drug treatment was initiated by adding 50 μL of drug dilutions to the plates in duplicate. […] The plates were shaken gently for 3 min at room temperature and luminescence was measured on a Victor^3 V 1420 multilabel counter (Perkin Elmer) with a 1 second read time using a 700 nm cut-off filter. The EC50 values were calculated from dose response curves from the resulting best-fit equations determined by Microsoft Excel and XLfit 4.1 software.

[11] = Cytotoxicity in Zluc cells transfected with human CES1; type: cell-based; conditions: Zluc cells transiently transfected with human CES1
Experimental: as §7, §8

[12] = Cytotoxicity in Zluc cells (CES1 study); type: cell-based; conditions: human
Experimental: as §8

CC(C)OP1(=O)OC[C@H]2O[C@@H](n3ccc(=O)[nH]c3=O)[C@](C)(Cl)[C@@H]2O1 (single isomer, unassigned) [Compound 37 Diastereomer 2]
SGF stability (percent remaining) [1]: ++++ (75% < ++++)
FHH TP AUC (fresh human hepatocytes): +++ (500 < +++ ≤ 1500)
FHH TP Cmax (fresh human hepatocytes): ++ (15 < ++ ≤ 50)
FHH TP (6 hr) (fresh human hepatocytes; 6 hr): BLD^b
FHH TP (24 hr) (fresh human hepatocytes; 24 hr): ++ (15 < ++ ≤ 50)
FHH TP (48 hr) (fresh human hepatocytes; 48 hr): ++ (15 < ++ ≤ 50)
EC50 (HCV genotype 1b replicon [2]): 1 to 10 µM
MsH AUC (fresh mouse hepatocytes): ++++ (1500 < ++++)
MsH Cmax (fresh mouse hepatocytes): ++++ (100 < ++++)
CC50 (Zluc cells [3]): > 50 µM
Ms Plasma nucleoside Cmax [4]: +++ (50 < +++ ≤ 100)
SIF stability (percent remaining) [5]: ++++ (75% < ++++)
Tmax [6]: 4 h
AUC(0-t) ([6]; normalized to 1 μmol/kg dose, read-out: Plasma prodrug AUC0-24): > 1.5 µM·h
Cmax ([6]; normalized to 1 μmol/kg dose, read-out: Plasma prodrug Cmax): > 100 nM
Nucleoside triphosphate in Liver C6 ([7]; 6 hours post dose, 10 mg/kg oral): ++++ (100 < ++++)
Nucleoside triphosphate in Liver AUC0-24 ([7]; single oral 10 mg/kg): ++++ (1500 < ++++)
Nucleoside triphosphate in Liver Cmax ([7]; single oral 10 mg/kg): ++++ (100 < ++++)

CC(C)(CO)C(=O)SCCOP(=O)(NCc1ccccc1)OC[C@H]1O[C@@H](n2cnc3c(=O)[nH]c(N)nc32)[C@](C)(O)[C@@H]1O (stereo partly drawn) [IDX-184]
EC50 (HCV genotype 1b replicon [8]): < 250 nM
Effect of CES1 overexpression on replicon activity (HCV genotype 1b replicon [8]): not increased
Fold Activity Increase EC50 (Zluc)/EC50 (Zluc + CES1) (HCV genotype 1b replicon [8]): + (+ ≤ 1)
CC50 (Zluc + CES1 cells): > 50 µM
CC50 (Zluc cells [9]): > 50 µM
EC50 (HCV genotype 1b replicon [10]): < 250 nM

CC(C)OC(=O)[C@H](C)N[P@](=O)(OC[C@H]1O[C@@H](n2ccc(=O)[nH]c2=O)[C@](C)(F)[C@@H]1O)Oc1ccccc1 [Sofosbuvir, sofosbuvir]
EC50 (HCV genotype 1b replicon [8]; Hepatitis C virus): 250 to 1000 nM
Effect of CES1 overexpression on replicon activity (HCV genotype 1b replicon [8]): not increased
Fold Activity Increase EC50 (Zluc)/EC50 (Zluc + CES1) (HCV genotype 1b replicon [8]): + (+ ≤ 1)
CC50 [11]: > 50 µM
CC50 [12]: > 50 µM
EC50 (HCV genotype 1b replicon [10]; Hepatitis C virus): 250 to 1000 nM
